Measurements taken from PubChem BioAssay (NCI).
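Protocol summary: plate cells (96-well), add compound at 5 concentrations, incubate 48 h, interpolate endpoints linearly. The concentration for 50% growth inhibition is given as GI50. TGI is the concentration that stops growth completely.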

Assays:
Test in all cases: inhibition of tumour cell growth, NCI panel, 48 h
[1] = system: 786-0 renal
[2] = system: SK-OV-3 ovarian
[3] = system: NCI-H522 lung
[4] = system: SK-MEL-2 melanoma
[5] = system: HT29 colon
[6] = system: SNB-75 CNS
[7] = system: SW-620 colon
[8] = system: SF-539 CNS
[9] = system: KM12 colon
[10] = system: HOP-62 NSCLC
[11] = system: MALME-3M melanoma
[12] = system: SF-295 CNS
[13] = system: ACHN renal
[14] = system: PC-3 prostate
[15] = system: IGROV1 ovarian
[16] = system: UACC-257 melanoma
[17] = system: UO-31 renal
[18] = system: DU-145 prostate
[19] = system: HCT-15 colon
[20] = system: HCC-2998 colon
[21] = system: NCI-H460 lung
[22] = system: NCI-H226 lung
[23] = system: SN12C renal
[24] = system: U251 CNS
[25] = system: SF-268 CNS
[26] = system: TK-10 renal
[27] = system: SNB-19 CNS
[28] = system: BT-549 breast
[29] = system: SK-MEL-5 melanoma
[30] = system: OVCAR-5 ovarian
[31] = system: A498 renal
[32] = system: CAKI-1 renal
[33] = system: COLO 205 colon
[34] = system: LOX IMVI melanoma
[35] = system: HCT-116 colon
[36] = system: HS 578T breast
[37] = system: HL-60(TB) leukemia
[38] = system: SR leukemia
[39] = system: EKVX NSCLC
[40] = system: CCRF-CEM leukemia
[41] = system: SK-MEL-28 melanoma
[42] = system: NCI/ADR-RES ovarian
[43] = system: RXF 393 renal
[44] = system: RPMI-8226 leukemia
[45] = system: HOP-92 NSCLC
[46] = system: UACC-62 melanoma
[47] = system: A549 NSCLC
[48] = system: MOLT-4 leukemia
[49] = system: OVCAR-4 ovarian
[50] = system: MDA-MB-435
[51] = system: M14 melanoma
[52] = system: T-47D breast
[53] = system: MDA-MB-231 breast
[54] = system: K-562 leukemia
[55] = system: OVCAR-3 ovarian
[56] = system: OVCAR-8 ovarian
[57] = system: MCF7 breast

CCNC(=O)N1CCc2cc(OC)c(OCCc3ccc(OC)cc3)cc2C1c1ccc(Cl)cc1C (centres undefined)
GI50 [1]: 421 nM | TGI [1]: > 100000 nM | GI50 [2]: 2110 nM | TGI [2]: > 100000 nM | GI50 [3]: 700 nM | TGI [3]: 2950 nM | GI50 [4]: 3520 nM | TGI [4]: > 23700 nM | GI50 [5]: 444 nM | TGI [5]: 3140 nM | GI50 [6]: 456 nM | TGI [6]: 6300 nM | GI50 [7]: 568 nM | TGI [7]: > 100000 nM | GI50 [8]: 410 nM | TGI [8]: 3160 nM | GI50 [9]: 1380 nM | TGI [9]: > 31400 nM | GI50 [10]: 958 nM | TGI [10]: > 100000 nM | GI50 [11]: 3650 nM | TGI [11]: > 100000 nM | GI50 [12]: 711 nM | TGI [12]: 12700 nM | GI50 [13]: 676 nM | TGI [13]: > 100000 nM | GI50 [14]: 217 nM | TGI [14]: > 100000 nM | GI50 [15]: 607 nM | TGI [15]: > 100000 nM | GI50 [16]: 2310 nM | TGI [16]: > 100000 nM | GI50 [17]: 932 nM | TGI [17]: > 100000 nM | GI50 [18]: 830 nM | TGI [18]: > 100000 nM | GI50 [19]: 85.3 nM | TGI [19]: > 100000 nM | GI50 [20]: 1270 nM | TGI [20]: > 33300 nM | GI50 [21]: 100 nM | TGI [21]: 2250 nM | GI50 [22]: 1890 nM | TGI [22]: 7060 nM | GI50 [23]: 1020 nM | TGI [23]: > 25000 nM | GI50 [24]: 479 nM | TGI [24]: > 40100 nM | GI50 [25]: 1030 nM | TGI [25]: > 100000 nM | GI50 [26]: 3520 nM | TGI [26]: > 100000 nM | GI50 [27]: 683 nM | TGI [27]: > 100000 nM | GI50 [28]: 1060 nM | TGI [28]: 4570 nM | GI50 [29]: 670 nM | TGI [29]: 2310 nM | GI50 [30]: 1860 nM | TGI [30]: > 100000 nM | GI50 [31]: 4020 nM | TGI [31]: > 24200 nM | GI50 [32]: 736 nM | TGI [32]: > 50100 nM | GI50 [33]: 1020 nM | TGI [33]: 5940 nM | GI50 [34]: 186 nM | TGI [34]: 1770 nM | GI50 [35]: 86.6 nM | TGI [35]: > 100000 nM | GI50 [36]: 1700 nM | TGI [36]: 8990 nM | GI50 [37]: 643 nM | TGI [37]: 3970 nM | GI50 [38]: 96.1 nM | TGI [38]: 3300 nM | GI50 [39]: 4090 nM | TGI [39]: > 100000 nM | GI50 [40]: 382 nM | TGI [40]: > 100000 nM | GI50 [41]: 943 nM | TGI [41]: > 100000 nM | GI50 [42]: 735 nM | TGI [42]: 5810 nM | GI50 [43]: 1450 nM | TGI [43]: > 21600 nM | GI50 [44]: 403 nM | TGI [44]: 3950 nM | GI50 [45]: 1480 nM | TGI [45]: > 21400 nM | GI50 [46]: 532 nM | TGI [46]: 6440 nM | GI50 [47]: 735 nM | TGI [47]: > 100000 nM | GI50 [48]: 338 nM | TGI [48]: > 100000 nM | GI50 [49]: 2580 nM | TGI [49]: > 100000 nM | GI50 [50]: 660 nM | TGI [50]: 5820 nM | GI50 [51]: 726 nM | TGI [51]: > 100000 nM | GI50 [52]: 1840 nM | TGI [52]: > 100000 nM | GI50 [53]: 801 nM | TGI [53]: > 100000 nM | GI50 [54]: 92.4 nM | TGI [54]: > 100000 nM | GI50 [55]: 1040 nM | TGI [55]: > 100000 nM | GI50 [56]: 669 nM | TGI [56]: > 100000 nM | GI50 [57]: 422 nM | TGI [57]: > 100000 nM
